Measured values: EP1437348A1, “6-methyl-2,4-diamino-pyrimidine derivatives, process for preparation, compositions containing them and their uses as basic neutralising agents” (L'OREAL, priority 2003, dated 2004)
Values after ≈ are worked out from the molar mass of the structure shown. Where two headings read alike, the source gives them in different places.

How the values were obtained:
Candida albicans [1] = assay: Minimal inhibitory concentration (CMI), Alamar Blue broth method; assay type: cell-based; details: ATCC10231, ATCC #10231, lowest concentration with growth inhibition ≥ 90%, 16 h contact at 37°C
Description: (§1) La méthode de détermination de l'activité anti-microbienne des composés selon l'invention fait intervenir la mesure de la Concentration Minimale Inhibitrice (CMI) vis-à-vis de 2 bactéries gram- (E. coli et P. aeruginosa), d'une bactérie gram+ (S. aureus) et d'une levure (C. albicans). Cette méthode a été effectuée selon la méthode décrite dans les articles suivants: - Baker C.N., Banerjee S.N. and Tenover F.C. : Evaluation of Alamar colorimetric MIC Method for antimicrobial susceptibility testing of gram-negative bacteria. J. Clin. Microbiol. (1994), 32, 1261-1267; - Baker C.N. and Tenover F.C. : Evaluation of Alamar colorimetric broth microdilution susceptibility testing method for staphylococci and enterococci. J. Clin. Microbiol. (1996), 34, 2654-2659. Les souches bactériennes utilisées au départ sous forme de disques lyophilisés calibrés sont réhydratées en suivant les indications du fournisseur (Fisher Scientific S.A.)
(§2) Les souches sont ensemencées dans du milieu Trypto-caseine-soja. La mise en contact du composé à tester solubilisé dans l'eau, avec les souches en phase de croissance s'effectue en milieu liquide. Après 16 heures de contact du composé avec les bactéries (37°C), de l'Alamar Blue est ajouté comme indicateur métabolique de la viabilité de cellules variées et de bactéries. La réduction de l'indication est proportionnelle à l'activité métabolique des bactéries. A l'issue de l'incubation d'une durée de 2h (sauf pour C. albicans pour laquelle l'incubation est de 4h), l'activité métabolique des bactéries est évaluée par une lecture en absorbance ou en fluorescence. En fluorescence, les lectures sont réalisées à 544nm (Excitation) et à 590nm (Emission). Les composés les plus actifs sont sélectionnés et un effet dose (8 concentrations) est ensuite réalisé comme précédemment. La Concentration Minimale Inhibitrice (C.M.I.) a alors été déterminée comme étant la concentration la plus faible du composé testé pour laquelle était observée une inhibition de croissance de la bactérie ou de la levure ≥ 90%.

Escherichia coli [2] = assay: as above; assay type: cell-based; details: ATCC8739, ATCC #8739, lowest concentration with growth inhibition ≥ 90%, 16 h contact at 37°C, read-out: CMI E.coli
Description: as §1, §2

Pseudomonas aeruginosa [3] = assay: as above; assay type: cell-based; details: ATCC9027, ATCC #9027, lowest concentration with growth inhibition ≥ 90%, 16 h contact at 37°C, read-out: CMI P.aeruginosa
Description: as §1, §2

Staphylococcus aureus = assay: as above; assay type: cell-based; details: ATCC6538, ATCC #6538, lowest concentration with growth inhibition ≥ 90%, 16 h contact at 37°C, read-out: CMI S.aureus
Description: as §1, §2

[4] = Ionisation constants by potentiometric titration; assay type: physicochemical; details: read-out: pKa expérimental
Experimental: Les constantes d'ionisation sont déterminées expérimentalement par titrage potentiométrique suivant les conditions opératoires décrites ci-dessous et évaluées par le logiciel de prédiction ACD/pK DB, Version 5.12.
Conditions opératoires du titrage potentiométrique • Matériel utilisé : (Radiometer-Tacussel) : • titrateur TIM 900 • passeur d'échantillons SAC 90 • logiciel Tim Talk 9 • - Prise d'essai : 10^-4 mole • - Mise en solution : (solubilisation avec passeur d'échantillons) • 5 ml du mélange DMSO 70 / Ethanol 10 / Eau 20 (agitation 3 minutes avec barbotage d'azote) • 10 ml d'une solution de NaCl 0.225M dans eau 80 / DMSO 20 (agitation 3 minutes avec barbotage d'azote) • - Méthode de titrage : • Etalonnage de l'électrode entre pH4 et pH10 • Titrage direct par NaOH 1N ou après ajout d'HCl 1N • Détection d'inflexion avec ajout continu du titrant • vitesse d'addition mini : 1%/min • vitesse d'addition maxi : 1%/min • Flux d'azote à la surface de la solution pendant le titrage • - Calculs : • 2 fonctions polynomiales sont utilisées pour obtenir le pKa dans l'eau en milieu NaCl 0.15M : • pour les fonctions acides : pKaH2O = -0,0208(pKasolvant)^2 + 1,257pKasolvant - 1,6 • pour les fonctions basiques :pKaH2O = -0,0208(pKasolvant)^2 + 1,257pKasolvant - 0,75

Candida albicans [5] = assay: Challenge test (artificial contamination) in cosmetic supports; assay type: cell-based; details: inoculum about 10^6 germes/gramme, sensitivity threshold 200 UFC
Description: (§3) La mesure de la Concentration Minimale Inhibitrice (C.M.I.) développée ci-dessus ne peut être utilisée avec fiabilité pour les moisissures; or les moisissures peuvent également poser de graves problèmes dans la conservation des produits cosmétiques. En sachant que l'activité d'un composé diminue lorsqu'il est introduit dans une formule et que la méthode de la CMI se fait après dilution du composé dans l'eau, l'efficacité anti-microbienne des composés de formule (I) a été évaluée par la méthode du Challenge Test ou contamination artificielle après avoir introduit lesdits composés dans des supports cosmétiques (lotion, émulsions huile-dans-eau et eau-dans-huile). La méthode du challenge-test consiste en une contamination artificielle de l'échantillon par des souches microbiennes de collection (bactéries, levures et moisissures) et en une évaluation du nombre de micro-organismes revivifiables sept jours après l'inoculation. Afin de mettre en évidence l'effet d'un composé de formule (I), l'activité anti-microbienne d'une formule cosmétique contenant 0.25% de 4 methyl-pipéridine-1-yl-pyrimidine-2-ylamine a été comparée avec la même formule seule, après inoculation d'environ 10^6 germes/gramme de produit cosmétique.

Escherichia coli [6] = assay: as above; assay type: cell-based; details: inoculum about 10^6 germes/gramme, sensitivity threshold 200 UFC
Description: as §3

Pseudomonas aeruginosa [7] = assay: as above; assay type: cell-based; details: inoculum about 10^6 germes/gramme, sensitivity threshold 200 UFC
Description: as §3

Enterococcus faecalis = assay: as above; assay type: cell-based; details: inoculum about 10^6 germes/gramme, sensitivity threshold 200 UFC
Description: as §3

Aspergillus niger = assay: as above; assay type: cell-based; details: inoculum about 10^6 germes/gramme, sensitivity threshold 200 UFC
Description: as §3

[8] = water, nacl 0.15m, dans l'eau, NaCl 0,15M, reference molecules entered in the database used for the prediction
[9] = function NH^+/N (pyrimidine motif), pKa in water, NaCl 0.15M, obtained from the solvent pKa by a polynomial function
[10] = Emulsion démaquillante huile dans eau + 0.25% compound
[11] = Emulsion eau dans huile + 0.250% compound

Compound | MIC (Candida albicans [1]) [µg/mL] | MIC (Escherichia coli [2]) [µg/mL] | MIC (Pseudomonas aeruginosa [3]) [µg/mL] | MIC (Staphylococcus aureus) [µg/mL] | also measured
Cc1cc(N2CCN(C3CCN(C)CC3)CC2)nc(N)n1 [Composé J, 4-methyl-6-[4-(1-methyl-piperidin-4-yl)-piperazin-1-yl]-pyrimidin-2-ylamine] | 5000 (≈ 17.2 mM) | 2500 (≈ 8.61 mM) | > 5000 | 5000 (≈ 17.2 mM) | 
CO[Si](C)(C)CCCCNc1cc(C)nc(N)n1 [Composé A, 4-N-[4-(méthoxy-dimethylsilyl)-butyl]-6-methyl-pyrimidine - 2,4-diamine] | 156 (≈ 0.581 mM) | 78 (≈ 0.291 mM) | 156 (≈ 0.581 mM) | 78 (≈ 0.291 mM) | 
Cc1cc(NCc2ccc(C)o2)nc(N)n1 [Composé I, 4-N-(5-methyl-furan-2-ylmethyl)---6-methyl-pyrimidine – 2,4-diamine] | 625 (≈ 2.86 mM) | 1250 (≈ 5.73 mM) | 2500 (≈ 11.5 mM) | 625 (≈ 2.86 mM) | 
Nc1ncccn1 [2-aminopyrimidine, reference compound] |  |  |  |  | pKa [4, 8]: 3.9
Cc1cc(NCC(C)(C)N)nc(N)n1 [Composé G, N4-(2-amino-2-methyl-propyl)-6-methyl-pyrimidine-2,4-diamine] | 2500 (≈ 12.8 mM) | 2500 (≈ 12.8 mM) | 2500 (≈ 12.8 mM) | 5000 (≈ 25.6 mM) | 
Cc1cc(NCC2CCNCC2)nc(N)n1 [Composé B, 4-N-[4-piperidinylmethyl]-6-methyl-pyrimidine-2,4-diamine] | 5000 (≈ 22.6 mM) | 1250 (≈ 5.65 mM) | 250 (≈ 1.13 mM) | 2500 (≈ 11.3 mM) | 
Cc1cc(NCC2CCCC(CN)C2)nc(N)n1 (stereo not drawn) [Composé L, 4-N-(3-aminomethyl-cyclohexylmethyl)-6-methyl-pyrimidine-2,4-diamine] | 1250 (≈ 5.01 mM) | 2500 (≈ 10 mM) | 2500 (≈ 10 mM) | 2500 (≈ 10 mM) | 
Cc1cc(N2CCc3cc(O)c(O)cc3C2)nc(N)n1 [Composé E, 2-(2-amino-6-methyl-pyrimidin-4-yl)-1,2,3,4-tetrahydro-isoquinoline-6,7-diol] | 1250 (≈ 4.59 mM) | 625 (≈ 2.3 mM) | 5000 (≈ 18.4 mM) | 1250 (≈ 4.59 mM) | 
Cc1cc(N2CCN(c3ncccn3)CC2)nc(N)n1 [Composé K, 4-methyl-6-(4-pyrimidin-2-yl-piperazin-1-yl)-pyrimidin-2-ylamine] | 625 (≈ 2.3 mM) | 2500 (≈ 9.21 mM) | > 5000 | 5000 (≈ 18.4 mM) | 
Cc1cc(NCc2ccco2)nc(N)n1 [Comparatif (DE 3717480), reference compound] | > 10000 | > 10000 | > 10000 | 626 (≈ 3.06 mM) | 
COc1cccc(Nc2cc(C)nc(N)n2)c1 [reference compound] | 1250 (≈ 5.43 mM) | > 5000 | > 5000 | > 5000 | 
Nc1ccncn1 [4-aminopyrimidine, reference compound] |  |  |  |  | pKa [4, 8]: 6

The next lines start with results.

MIC (Candida albicans [1]) [µg/mL] | MIC (Escherichia coli [2]) [µg/mL] | MIC (Pseudomonas aeruginosa [3]) [µg/mL] | MIC (Staphylococcus aureus) [µg/mL] | Compound | also measured
2500 (≈ 10.6 mM) | 2500 (≈ 10.6 mM) | 5000 (≈ 21.2 mM) | 1250 (≈ 5.29 mM) | Cc1cc(NCCN2CCNCC2)nc(N)n1 [Composé H, 4-N-(2-piperazin-1-yl-ethyl)-6-methyl-pyrimidine – 2,4-diamine] | 
2500 (≈ 12.1 mM) | 5000 (≈ 24.1 mM) | 5000 (≈ 24.1 mM) | 2500 (≈ 12.1 mM) | Cc1cc(NC[C@@H]2CCCN2)nc(N)n1 [Composé C] | 
 | 5000 (≈ 15.7 mM) | > 5000 | 5000 (≈ 15.7 mM) | Cc1cc(N2CCCN(CCCN3CCCC3)CC2)nc(N)n1 [Composé D, 4-methyl-6-[4-(3-pyrrolidin-1-yl-propyl)-[1,4]diazepan-1-yl]-pyrimidin-2-ylamine] | 
5000 (≈ 18.9 mM) | 2500 (≈ 9.46 mM) | > 5000 | 5000 (≈ 18.9 mM) | Cc1cc(N2CCN(CCN(C)C)CC2)nc(N)n1 [Composé F, 4-[4-(2-dimethylamino-ethyl)-piperazin-1-yl]-6-methyl-pyrimidin-2-ylamine] | 
160 (≈ 0.768 mM) | 310 (≈ 1.49 mM) | 2500 (≈ 12 mM) | 630 (≈ 3.02 mM) | CCCCCCNc1cc(C)nc(N)n1 [Composé N, 4-N-Hexyl-6-methyl-pyrimidine-2,4-diamine] | pKa [4, 9]: 8.35
> 5000 | > 5000 | > 5000 | > 5000 | Nc1nc(N2CCCCC2)cc(C(F)(F)F)n1 [Comparatif (DE 19917784), reference compound] | 
625 (≈ 3.25 mM) | 5000 (≈ 26 mM) | 5000 (≈ 26 mM) | 5000 (≈ 26 mM) | Cc1cc(N2CCCCC2)nc(N)n1 [Composé M, 4-methyl-6-pipéridine-1-yl-pyrimidine-2-ylamine] | Nombre d'UFC / gramme de produit après 7 jours de contact germes / produit (Candida albicans [5]; [10]): <200 UFC / gramme de produit; Nombre d'UFC / gramme de produit après 7 jours de contact germes / produit (Candida albicans [5]; [11]): <200 UFC / gramme de produit; Nombre d'UFC / gramme de produit après 7 jours de contact germes / produit (Candida albicans [5]; Lotion + 0.25% compound): <200 UFC / gramme de produit; Nombre d'UFC / gramme de produit après 7 jours de contact germes / produit (Escherichia coli [6]; [10]): <200^2 UFC / gramme de produit; Nombre d'UFC / gramme de produit après 7 jours de contact germes / produit (Escherichia coli [6]; [11]): <200^2 UFC / gramme de produit; Nombre d'UFC / gramme de produit après 7 jours de contact germes / produit (Escherichia coli [6]; Lotion + 0.25% compound): <200^2 UFC / gramme de produit; Nombre d'UFC / gramme de produit après 7 jours de contact germes / produit (Pseudomonas aeruginosa [7]; [10]): <200 UFC / gramme de produit; Nombre d'UFC / gramme de produit après 7 jours de contact germes / produit (Pseudomonas aeruginosa [7]; [11]): <200 UFC / gramme de produit; Nombre d'UFC / gramme de produit après 7 jours de contact germes / produit (Pseudomonas aeruginosa [7]; Lotion + 0.25% compound): <200 UFC / gramme de produit; Nombre d'UFC / gramme de produit après 7 jours de contact germes / produit (Enterococcus faecalis; [10]): <200 UFC / gramme de produit; Nombre d'UFC / gramme de produit après 7 jours de contact germes / produit (Enterococcus faecalis; Lotion + 0.25% compound): 400 UFC / gramme de produit; Nombre d'UFC / gramme de produit après 7 jours de contact germes / produit (Aspergillus niger; [11]): 400 UFC / gramme de produit; Nombre d'UFC / gramme de produit après 7 jours de contact germes / produit (Aspergillus niger; Lotion + 0.25% compound): 400 UFC / gramme de produit; pKa [4, 9]: 8.35
